Results published in patent US20080171732A1, “New Pyridine Analogues IX 519” (AstraZeneca AB, priority 2007, published 2008).

Molecular target: T1, P2Y12 receptor (Homo sapiens, UniProt Q9H244)
T1 construct: expressed in transfected cells; host or cells: CHO cells (membranes)
Experiment: Functional inhibition of 2-Me-S-ADP induced P2Y12 signalling (35S-GTPγS, cell membranes from P2Y12 transfected CHO-cells)
Assay type: biochemical
Conditions: EC80 concentration of agonist 2-methyl-thio-adenosine diphosphate, 30° C., 45 min
Procedure: Functional inhibition of-the P2Y12 receptor can be measured by in vitro assays using cell membranes from P2Y12 transfected CHO-cells, the methodology is indicated below.
(§1) Functional inhibition of 2-Me-S-ADP induced P2Y12 signalling: 5 μg of membranes were diluted in 200 μl of 200 mM NaCl, 1 mM MgCl2, 50 mM HEPES (pH 7.4), 0.01% BSA, 30μg/ml saponin and 10 μM GDP. To this was added an EC80 concentration of agonist (2-methyl-thio-adenosine diphosphate), the required concentration of test compound and 0.1 μCi ^35S-GTPγS. The reaction was allowed to proceed at 30° C. for 45 min. Samples were then transferred on to GF/B filters using a cell harvester and washed with wash buffer (50 mM Tris (pH 7.4), 5 mM MgCl2, 50 mM NaCl). Filters were then covered with scintilant and counted for the amount of ^35S-GTPγS retained by the filter. Maximum activity was that determined in the presence of the agonist and minimum activity in the absence of the agonist following subtraction of the value determined for non-specific activity. The effect of compounds at various concentrations was plotted according to the equation
y=A+((B−A)/(1+((C/x)̂D)))
and IC50 estimated where • A is the bottom plateau of the curve i.e. the final minimum y value • B is the top of the plateau of the curve i.e. the final maximum y value • C is the x value at the middle of the curve. This represents the log EC50 value when A+B=100 • D is the slope factor. • x is the original known x values. • Y is the original known y values.
as §1, with “30 μg/ml” for “30μg/ml”, “0. 1” for “0.1”

T1 sequence (Q9H244 whole entry): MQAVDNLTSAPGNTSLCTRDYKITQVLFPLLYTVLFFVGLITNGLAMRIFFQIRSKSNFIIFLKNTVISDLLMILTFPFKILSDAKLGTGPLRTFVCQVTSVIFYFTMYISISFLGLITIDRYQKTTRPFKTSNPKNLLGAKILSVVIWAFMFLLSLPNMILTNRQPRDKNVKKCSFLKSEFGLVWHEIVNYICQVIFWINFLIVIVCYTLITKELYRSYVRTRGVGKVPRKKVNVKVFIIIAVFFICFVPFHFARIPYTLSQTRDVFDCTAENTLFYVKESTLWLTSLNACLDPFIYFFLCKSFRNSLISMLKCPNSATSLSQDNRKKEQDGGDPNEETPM

Structure (SMILES)	IC50 [µM]
CCOC(=O)c1cc(C#N)c(N2CC(C(=O)NS(=O)(=O)Cc3ccccc3)C2)nc1OC [Example 2, Ethyl6-{3-[(benzylsulfonyl)carbamoyl]azetidin-1-yl}-5-cyano-2-methoxynicotinate]	0.018
CCOC(=O)c1cc(C#N)c(N2CCC(C(=O)NS(=O)(=O)Cc3ccccc3)CC2)nc1CO [Example 6, Ethyl6-{4-[(benzylsulfonyl)carbamoyl]piperidin-1-yl}-5-cyano-2-(hydroxymethyl)nicotinate]	0.017
CCOC(=O)c1cc(C#N)c(N2CCC(C(=O)NS(=O)(=O)Cc3ccccc3Cl)CC2)nc1OC [Example 9, Ethyl6-(4-{[(2-chlorobenzyl)sulfonyl]carbamoyl}piperidin-1-yl)-5-cyano-2-methoxynicotinate]	0.032
CCOC(=O)c1cc(C#N)c(N2CCC(C(=O)NS(=O)(=O)Cc3cccc(F)c3)CC2)nc1OC [Example 10, Ethyl5-cyano-6-(4-{[(3-fluorobenzyl)sulfonyl]carbamoyl}piperidin-1-yl)-2-methoxynicotinate]	0.016
CCOC(=O)c1cc(C#N)c(N2CCC(C(=O)NS(=O)(=O)Cc3ccc(C(F)(F)F)cc3)CC2)nc1OC [Example 13, Ethyl5-cyano-2-methoxy-6-[4-({[4-(trifluoromethyl)benzyl]sulfonyl}carbamoyl)piperidin-1-yl]nicotinate]	0.019
CCOC(=O)c1cc(C#N)c(N2CCC(C(=O)NS(=O)(=O)Cc3ccc(F)c(F)c3)CC2)nc1OC [Example 14, Ethyl5-cyano-6-(4-{[(3,4-difluorobenzyl)sulfonyl]carbamoyl}piperidin-1-yl)-2-methoxynicotinate]	0.013
CCOC(=O)c1cc(C#N)c(N2CCC(C(=O)NS(=O)(=O)Cc3ccc(Cl)cc3Cl)CC2)nc1OC [Example 15, Ethyl5-cyano-6-(4-{[(2,4-dichlorobenzyl)sulfonyl]carbamoyl}piperidin-1-yl)-2-methoxynicotinate]	0.022

The next molecules have a lower IC50 than those just listed; values first:

IC50 [µM]	Structure (SMILES)
0.012	CCOC(=O)c1cc(C#N)c(N2CCC(C(=O)NS(=O)(=O)Cc3ccccc3)CC2)nc1OC [Example 1, Ethyl6-{4-[(benzylsulfonyl)carbamoyl]piperidin-1-yl}-5-cyano-2-methoxynicotinate]
0.012	CCOC(=O)c1cc(C#N)c(N2CCC(C(=O)NS(=O)(=O)Cc3ccccc3)CC2)nc1OCC [Example 3, Ethyl6-{4-[(benzylsulfonyl)carbamoyl]piperidin-1-yl}-5-cyano-2-ethoxynicotinate]
0.006	CCOC(=O)c1cc(C#N)c(N2CCC(C(=O)NS(=O)(=O)Cc3ccccc3)CC2)nc1SCC [Example 4, Ethyl6-{4-[(benzylsulfonyl)carbamoyl]piperidin-1-yl}-5-cyano-2-(ethylthio)nicotinate]
0.009	CCOC(=O)c1cc(C#N)c(N2CCC(C(=O)NS(=O)(=O)Cc3ccccc3)CC2)nc1C#N [Example 5, Ethyl6-{4-[(benzylsulfonyl)carbamoyl]piperidin-1-yl}-2,5-dicyanonicotinate]
0.01	CCOC(=O)c1cc(C#N)c(N2CCC(C(=O)NS(=O)(=O)Cc3ccccc3F)CC2)nc1OC [Example 8, Ethyl5-cyano-6-(4-{[(2-fluorobenzyl)sulfonyl]carbamoyl}piperidin-1-yl)-2-methoxynicotinate]
0.009	CCOC(=O)c1cc(C#N)c(N2CCC(C(=O)NS(=O)(=O)Cc3ccc(F)cc3)CC2)nc1OC [Example 11, Ethyl5-cyano-6-(4-{[(4-fluorobenzyl)sulfonyl]carbamoyl}piperidin-1-yl)-2-methoxynicotinate]
0.009	CCOC(=O)c1cc(C#N)c(N2CCC(C(=O)NS(=O)(=O)Cc3ccc(Cl)cc3)CC2)nc1OC [Example 12, Ethyl6-(4-{[(4-chlorobenzyl)sulfonyl]carbamoyl}piperidin-1-yl)-5-cyano-2-methoxynicotinate]
0.008	CCOC(=O)c1cc(C#N)c(N2CCC(C(=O)NS(=O)(=O)Cc3ccc(F)cc3F)CC2)nc1OC [Example 16, Ethyl5-cyano-6-(4-{[(2,4-difluorobenzyl)sulfonyl]carbamoyl}piperidin-1-yl)-2-methoxynicotinate]
